Source: ChEMBL document CHEMBL3870312, “Rational modification of donepezil as multifunctional acetylcholinesterase inhibitors for the treatment of Alzheimer's disease” (Eur J Med Chem, 2016)
Calls of active or inactive are those of the source. The calls are words filed in the database; no cut-off is given here.

Target: T1, Acetylcholinesterase (Homo sapiens, UniProt P22303)
Assay: Mixed-type inhibition of human erythrocyte AChE preincubated for 15 mins followed by addition of acetylthiocholine iodide as substrate in varying concentrations by Lineweaver-Burk reciprocal plot analysis
Conditions: not given

T1 sequence (P22303 whole entry): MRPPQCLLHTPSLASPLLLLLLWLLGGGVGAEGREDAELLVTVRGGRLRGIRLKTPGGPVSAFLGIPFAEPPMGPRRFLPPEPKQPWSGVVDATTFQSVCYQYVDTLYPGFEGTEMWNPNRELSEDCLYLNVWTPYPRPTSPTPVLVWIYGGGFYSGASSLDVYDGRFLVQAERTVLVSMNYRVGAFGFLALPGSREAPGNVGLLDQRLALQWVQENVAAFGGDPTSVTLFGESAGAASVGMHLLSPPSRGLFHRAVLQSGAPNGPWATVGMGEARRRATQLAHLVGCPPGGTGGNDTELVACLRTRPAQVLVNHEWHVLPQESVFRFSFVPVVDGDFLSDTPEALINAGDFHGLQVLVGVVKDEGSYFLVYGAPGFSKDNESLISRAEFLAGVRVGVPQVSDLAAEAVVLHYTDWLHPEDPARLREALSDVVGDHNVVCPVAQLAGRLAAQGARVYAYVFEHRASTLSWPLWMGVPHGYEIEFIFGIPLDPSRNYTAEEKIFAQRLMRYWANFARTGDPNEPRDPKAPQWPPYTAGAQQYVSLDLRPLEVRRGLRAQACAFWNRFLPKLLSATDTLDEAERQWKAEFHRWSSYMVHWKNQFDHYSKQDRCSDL

Compound	inhibition
COc1cc2c(cc1OC)C(=O)C(CC1CCN(Cc3cccc(C)n3)CC1)C2 (stereo not given)	Active
COc1cc2c(cc1OC)C(=O)C(CC1CCN(Cc3ccccc3F)CC1)C2 (stereo not given)	Active

Tested on: not listed separately
Assay: Metal chelating activity assessed as Zn2+-compound complex formation at 50 uM by fluorescence spectrophotometry
Assay type: physicochemical
Conditions: not given

Compound	Activity
COc1cc2c(cc1OC)C(=O)C(CC1CCN(Cc3cccc(C)n3)CC1)C2 (stereo not given)	Active

Tested on: not listed separately
Assay: Metal chelating activity of the compound assessed as formation of ferric complex at 50 uM by fluorescence spectrophotometry
Assay type: physicochemical
Conditions: not given

Compound	Activity
COc1cc2c(cc1OC)C(=O)C(CC1CCN(Cc3cccc(C)n3)CC1)C2 (stereo not given)	Active

Tested on: not listed separately
Assay: Metal chelating activity of the compound assessed as formation of copper complex at 50 uM by fluorescence spectrophotometry
Assay type: physicochemical
Conditions: not given

Compound	Activity
COc1cc2c(cc1OC)C(=O)C(CC1CCN(Cc3cccc(C)n3)CC1)C2 (stereo not given)	Active

Tested on: not listed separately
Assay: Metal chelating activity of the compound assessed as formation of copper complex at 10 uM by UV-vis spectrometry
Assay type: physicochemical
Conditions: not given

Compound	Activity
COc1cc2c(cc1OC)C(=O)C(CC1CCN(Cc3cccc(C)n3)CC1)C2 (stereo not given)	Active

Tested on: not listed separately
Assay: Metal chelating activity assessed as mole fraction of compound required to show 1:1 stoichiometry for Cu2+-compound complex at 10 uM by UV-vis spectrometry
Assay type: physicochemical
Conditions: not given

Compound	Activity [molar ratio]
COc1cc2c(cc1OC)C(=O)C(CC1CCN(Cc3cccc(C)n3)CC1)C2 (stereo not given)	0.9

Tested on: not listed separately
Assay: Inhibition of copper-mediated aggregation of amyloid beta (1 to 42 residues) (unknown origin) incubated for 46 to 48 hrs by thioflavin-T binding assay
Assay type: physicochemical
Conditions: not given

Compound	inhibition (INH)
COc1cc2c(cc1OC)C(=O)C(CC1CCN(Cc3cccc(C)n3)CC1)C2 (stereo not given)	Dose-dependent effect

Organism: Rattus norvegicus
Assay: Cytotoxicity against rat PC12 cells assessed as reduction in cell viability at 3.125 to 50 uM after 24 hrs by MTT assay
Assay type: toxicity
Conditions: pc-12, 24 h

Compound	Activity
COc1cc2c(cc1OC)C(=O)C(CC1CCN(Cc3ncccc3C)CC1)C2 (stereo not given)	Non-Toxic
COc1cc2c(cc1OC)C(=O)C(CC1CCN(Cc3cccc(C)n3)CC1)C2 (stereo not given)	Non-Toxic
COc1cc2c(cc1OC)C(=O)C(CC1CCN(Cc3ccccc3F)CC1)C2 (stereo not given)	Non-Toxic

Tested on: PC-12
Assay: Neuroprotective activity against Cu2+-amyloid beta (1 to 42 residues) induced cell death in rat PC12 cells assessed as increase in cell viability at 2.5 to 20 uM preincubated for 24 hrs followed by Cu2+-amyloid beta (1 to 42 residues) addition measured after 24 hrs by MTT assay
Assay type: functional, cell-based
Conditions: not given

Compound	Activity
COc1cc2c(cc1OC)C(=O)C(CC1CCN(Cc3cccc(C)n3)CC1)C2 (stereo not given)	Active

Tested on: PC-12
Assay: Neuroprotective activity against amyloid beta (1 to 42 residues) induced cell death in rat PC12 cells assessed as increase in cell viability at 10 to 20 uM preincubated for 24 hrs followed by amyloid beta (1 to 42 residues) addition measured after 24 hrs by MTT assay
Assay type: functional, cell-based
Conditions: not given

Compound	Activity
COc1cc2c(cc1OC)C(=O)C(CC1CCN(Cc3cccc(C)n3)CC1)C2 (stereo not given)	Active

Tested on: PC-12
Assay: Neuroprotective activity against Cu2+-amyloid beta (1 to 42 residues) induced cell death in rat PC12 cells by phase-contrast microscopy analysis
Assay type: functional, cell-based
Conditions: not given

Compound	Activity
COc1cc2c(cc1OC)C(=O)C(CC1CCN(Cc3cccc(C)n3)CC1)C2 (stereo not given)	Active

Tested on: PC-12
Assay: Neuroprotective activity against amyloid beta (1 to 42 residues) induced cell death in rat PC12 cells by phase-contrast microscopy analysis
Assay type: functional, cell-based
Conditions: not given

Compound	Activity
COc1cc2c(cc1OC)C(=O)C(CC1CCN(Cc3cccc(C)n3)CC1)C2 (stereo not given)	Active

Tested on: Mus musculus
Assay: Cognitive enhancement activity in po dosed scopolamine-induced memory deficit Kunming mouse model assessed as increase in step-through latency time treated for 1 hr before training followed by scopolamine challenge 30 mins before training measured 24 hrs after training trial by passive avoidance test
Assay type: functional, organism-based
Conditions: not given

Compound	Activity
COc1cc2c(cc1OC)C(=O)C(CC1CCN(Cc3cccc(C)n3)CC1)C2 (stereo not given)	Dose-dependent effect
COc1cc2c(cc1OC)C(=O)C(CC1CCN(Cc3ccccc3F)CC1)C2 (stereo not given)	Dose-dependent effect

Tested on: Mus musculus
Assay: Toxicity in scopolamine-induced memory deficit Kunming mouse model assessed as change in body weight at 2.5 to 10 mg/Kg, po for 7 days
Assay type: organism-based
Conditions: in vivo, 168 h

Compound	Activity
COc1cc2c(cc1OC)C(=O)C(CC1CCN(Cc3cccc(C)n3)CC1)C2 (stereo not given)	Non-Toxic
COc1cc2c(cc1OC)C(=O)C(CC1CCN(Cc3ccccc3F)CC1)C2 (stereo not given)	Non-Toxic

Tested on: Mus musculus
Assay: Toxicity in scopolamine-induced memory deficit Kunming mouse model assessed as effect on survival at 2.5 to 10 mg/Kg, po for 7 days
Assay type: organism-based
Conditions: in vivo, 168 h

Compound	Activity
COc1cc2c(cc1OC)C(=O)C(CC1CCN(Cc3cccc(C)n3)CC1)C2 (stereo not given)	Non-Toxic
COc1cc2c(cc1OC)C(=O)C(CC1CCN(Cc3ccccc3F)CC1)C2 (stereo not given)	Non-Toxic

Tested on: Mus musculus
Assay: Hepatotoxicity in scopolamine-induced memory deficit Kunming mouse model assessed as increase in alanine aminotransferase levels at 10 mg/kg, po for 6 days
Assay type: toxicity, organism-based
Conditions: in vivo, 144 h

Compound	Activity
COc1cc2c(cc1OC)C(=O)C(CC1CCN(Cc3cccc(C)n3)CC1)C2 (stereo not given)	Non-Toxic
COc1cc2c(cc1OC)C(=O)C(CC1CCN(Cc3ccccc3F)CC1)C2 (stereo not given)	Non-Toxic

Tested on: Mus musculus
Assay: Hepatotoxicity in scopolamine-induced memory deficit Kunming mouse model assessed as increased aspartate aminotransferase at 10 mg/Kg, po for 6 days
Assay type: toxicity, organism-based
Conditions: in vivo, 144 h

Compound	Activity
COc1cc2c(cc1OC)C(=O)C(CC1CCN(Cc3cccc(C)n3)CC1)C2 (stereo not given)	Non-Toxic
COc1cc2c(cc1OC)C(=O)C(CC1CCN(Cc3ccccc3F)CC1)C2 (stereo not given)	Non-Toxic

Tested on: Mus musculus
Assay: Hepatotoxicity in scopolamine-induced memory deficit Kunming mouse model assessed as increase in number of inflammatory cells in portal fields of liver at 10 mg/Kg, po for 6 days by hematoxylin and eosin-staining based microscopic analysis
Assay type: toxicity, organism-based
Conditions: in vivo, 144 h

Compound	Activity
COc1cc2c(cc1OC)C(=O)C(CC1CCN(Cc3cccc(C)n3)CC1)C2 (stereo not given)	Non-Toxic
COc1cc2c(cc1OC)C(=O)C(CC1CCN(Cc3ccccc3F)CC1)C2 (stereo not given)	Non-Toxic

Tested on: Mus musculus
Assay: Hepatotoxicity in scopolamine-induced memory deficit Kunming mouse model assessed as area of necrosis in hepatocytes at 10 mg/Kg, po for 6 days by hematoxylin and eosin-staining based microscopic analysis
Assay type: toxicity, organism-based, Hepatocyte
Conditions: 144 h

Compound	Activity
COc1cc2c(cc1OC)C(=O)C(CC1CCN(Cc3cccc(C)n3)CC1)C2 (stereo not given)	Non-Toxic
COc1cc2c(cc1OC)C(=O)C(CC1CCN(Cc3ccccc3F)CC1)C2 (stereo not given)	Non-Toxic

Tested on: Mus musculus
Assay: Hepatotoxicity in scopolamine-induced memory deficit Kunming mouse model assessed as distinct fatty degeneration in hepatocytes at 10 mg/Kg, po for 6 days by hematoxylin and eosin-staining based microscopic analysis
Assay type: toxicity, organism-based
Conditions: in vivo, 144 h

Compound	Activity
COc1cc2c(cc1OC)C(=O)C(CC1CCN(Cc3cccc(C)n3)CC1)C2 (stereo not given)	Non-Toxic
COc1cc2c(cc1OC)C(=O)C(CC1CCN(Cc3ccccc3F)CC1)C2 (stereo not given)	Non-Toxic

Tested on: not listed separately
Assay: Inhibition of copper-mediated aggregation of amyloid beta (1 to 42 residues) (unknown origin) at 20 uM incubated for 46 to 48 hrs by thioflavin-T binding assay relative to control
Assay type: physicochemical
Conditions: not given

Compound	inhibition (INH) [%]
COc1cc2c(cc1OC)C(=O)C(CC1CCN(Cc3ccccc3F)CC1)C2 (stereo not given)	< 10

Target: Cholinesterase (Equus caballus, UniProt P81908)
Assay: not given
Conditions: not given

Cholinesterase (Equus caballus, UniProt P81908), sequence (P81908 whole entry): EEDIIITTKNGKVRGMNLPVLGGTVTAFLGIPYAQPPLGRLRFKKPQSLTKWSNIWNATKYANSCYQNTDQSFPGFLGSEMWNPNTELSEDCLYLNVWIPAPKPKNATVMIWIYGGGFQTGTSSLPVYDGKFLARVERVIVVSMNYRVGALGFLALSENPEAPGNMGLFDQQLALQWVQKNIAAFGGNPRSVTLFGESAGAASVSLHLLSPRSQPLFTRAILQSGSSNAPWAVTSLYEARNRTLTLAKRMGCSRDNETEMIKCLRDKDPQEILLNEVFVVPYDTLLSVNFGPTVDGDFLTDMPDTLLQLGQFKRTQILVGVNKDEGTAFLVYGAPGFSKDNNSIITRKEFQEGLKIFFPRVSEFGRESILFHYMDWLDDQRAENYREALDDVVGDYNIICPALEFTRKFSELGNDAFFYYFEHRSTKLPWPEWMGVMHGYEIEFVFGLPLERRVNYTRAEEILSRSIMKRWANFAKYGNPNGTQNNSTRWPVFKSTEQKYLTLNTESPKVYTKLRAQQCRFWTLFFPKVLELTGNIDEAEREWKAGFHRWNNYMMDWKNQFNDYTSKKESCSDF

Compound	IC50 [nM]
COc1cc2c(cc1OC)C(=O)C(CC1CCN(Cc3ncccc3C)CC1)C2 (stereo not given)	15600
COc1cc2c(cc1OC)C(=O)C(CC1CCN(Cc3cccc(C)n3)CC1)C2 (stereo not given)	20500
COc1cc2c(cc1OC)C(=O)C(CC1CCN(Cc3ccccc3F)CC1)C2 (stereo not given)	3710

Target: Acetylcholinesterase (Electrophorus electricus, UniProt O42275)
Assay: not given
Conditions: not given

Acetylcholinesterase (Electrophorus electricus, UniProt O42275), sequence (O42275 whole entry): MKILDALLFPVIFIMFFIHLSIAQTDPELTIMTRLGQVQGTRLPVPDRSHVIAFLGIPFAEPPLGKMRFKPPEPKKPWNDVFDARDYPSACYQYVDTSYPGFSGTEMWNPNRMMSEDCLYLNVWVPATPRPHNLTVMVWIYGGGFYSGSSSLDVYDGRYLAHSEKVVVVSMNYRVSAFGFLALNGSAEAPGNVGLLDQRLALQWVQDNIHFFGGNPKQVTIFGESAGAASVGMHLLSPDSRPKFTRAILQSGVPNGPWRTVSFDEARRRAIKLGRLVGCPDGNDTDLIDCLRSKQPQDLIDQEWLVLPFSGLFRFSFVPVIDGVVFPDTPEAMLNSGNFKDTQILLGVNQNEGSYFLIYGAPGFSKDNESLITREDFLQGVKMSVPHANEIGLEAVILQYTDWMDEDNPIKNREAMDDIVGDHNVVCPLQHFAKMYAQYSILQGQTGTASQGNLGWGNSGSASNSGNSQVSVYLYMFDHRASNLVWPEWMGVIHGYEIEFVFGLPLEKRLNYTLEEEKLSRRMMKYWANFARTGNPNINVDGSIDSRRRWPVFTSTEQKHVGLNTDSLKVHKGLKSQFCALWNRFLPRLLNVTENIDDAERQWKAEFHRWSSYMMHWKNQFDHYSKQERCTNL

Compound	IC50 [nM]
COc1cc2c(cc1OC)C(=O)C(CC1CCN(Cc3ncccc3C)CC1)C2 (stereo not given)	108
COc1cc2c(cc1OC)C(=O)C(CC1CCN(Cc3cccc(C)n3)CC1)C2 (stereo not given)	85
COc1cc2c(cc1OC)C(=O)C(CC1CCN(Cc3ccccc3F)CC1)C2 (stereo not given)	43

Target: T1, Acetylcholinesterase
Assay: not given
Conditions: not given

Compound	IC50 [nM]
COc1cc2c(cc1OC)C(=O)C(CC1CCN(Cc3ncccc3C)CC1)C2 (stereo not given)	113
COc1cc2c(cc1OC)C(=O)C(CC1CCN(Cc3cccc(C)n3)CC1)C2 (stereo not given)	73
COc1cc2c(cc1OC)C(=O)C(CC1CCN(Cc3ccccc3F)CC1)C2 (stereo not given)	32

Target: Cholinesterase (Homo sapiens, UniProt P06276)
Assay: not given
Conditions: not given

Cholinesterase (Homo sapiens, UniProt P06276), sequence (P06276 whole entry): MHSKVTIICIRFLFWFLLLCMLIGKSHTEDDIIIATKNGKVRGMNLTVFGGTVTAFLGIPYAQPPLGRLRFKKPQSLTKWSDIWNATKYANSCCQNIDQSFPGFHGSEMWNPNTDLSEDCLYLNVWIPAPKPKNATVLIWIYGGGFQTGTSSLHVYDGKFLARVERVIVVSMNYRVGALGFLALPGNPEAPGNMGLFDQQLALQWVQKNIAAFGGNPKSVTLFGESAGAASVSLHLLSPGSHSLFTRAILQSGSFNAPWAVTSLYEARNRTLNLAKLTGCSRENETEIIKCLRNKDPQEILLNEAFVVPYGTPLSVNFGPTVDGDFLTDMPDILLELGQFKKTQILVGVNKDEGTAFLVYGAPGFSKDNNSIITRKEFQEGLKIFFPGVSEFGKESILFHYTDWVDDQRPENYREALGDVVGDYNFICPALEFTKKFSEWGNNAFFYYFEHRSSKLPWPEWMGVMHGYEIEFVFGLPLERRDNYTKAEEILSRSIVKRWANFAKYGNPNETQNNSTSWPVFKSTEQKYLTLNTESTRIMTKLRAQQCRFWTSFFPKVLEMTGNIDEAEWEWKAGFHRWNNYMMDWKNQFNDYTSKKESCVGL

Compound	IC50 [nM]
COc1cc2c(cc1OC)C(=O)C(CC1CCN(Cc3ncccc3C)CC1)C2 (stereo not given)	49200
COc1cc2c(cc1OC)C(=O)C(CC1CCN(Cc3cccc(C)n3)CC1)C2 (stereo not given)	65700
COc1cc2c(cc1OC)C(=O)C(CC1CCN(Cc3ccccc3F)CC1)C2 (stereo not given)	12800

Target: Amyloid-beta precursor protein (Homo sapiens) (UniProt P05067)
Assay: not given
Conditions: at 20 µM

Amyloid-beta precursor protein (Homo sapiens), sequence (P05067 whole entry): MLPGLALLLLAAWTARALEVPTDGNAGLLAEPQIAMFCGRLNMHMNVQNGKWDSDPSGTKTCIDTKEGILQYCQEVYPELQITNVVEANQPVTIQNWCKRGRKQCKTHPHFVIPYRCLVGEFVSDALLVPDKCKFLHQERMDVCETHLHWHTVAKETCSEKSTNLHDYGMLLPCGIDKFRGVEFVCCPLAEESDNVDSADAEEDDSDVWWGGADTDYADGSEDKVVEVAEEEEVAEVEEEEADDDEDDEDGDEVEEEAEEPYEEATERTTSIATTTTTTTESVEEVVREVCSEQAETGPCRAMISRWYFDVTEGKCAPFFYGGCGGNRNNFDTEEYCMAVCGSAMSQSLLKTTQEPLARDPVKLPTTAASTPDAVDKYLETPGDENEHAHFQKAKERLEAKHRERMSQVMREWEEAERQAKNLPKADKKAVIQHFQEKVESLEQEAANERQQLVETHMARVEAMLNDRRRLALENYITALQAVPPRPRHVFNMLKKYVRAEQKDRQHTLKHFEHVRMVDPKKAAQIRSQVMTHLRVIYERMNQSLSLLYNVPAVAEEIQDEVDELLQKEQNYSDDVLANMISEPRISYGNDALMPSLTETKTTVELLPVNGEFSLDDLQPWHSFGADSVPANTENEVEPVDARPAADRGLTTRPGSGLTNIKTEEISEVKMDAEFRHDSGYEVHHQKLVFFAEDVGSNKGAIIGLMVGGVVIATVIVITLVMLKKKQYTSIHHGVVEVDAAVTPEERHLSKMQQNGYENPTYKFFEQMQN

Compound	inhibition [%]
COc1cc2c(cc1OC)C(=O)C(CC1CCN(Cc3ncccc3C)CC1)C2 (stereo not given)	29.3
COc1cc2c(cc1OC)C(=O)C(CC1CCN(Cc3cccc(C)n3)CC1)C2 (stereo not given)	18.5
COc1cc2c(cc1OC)C(=O)C(CC1CCN(Cc3ccccc3F)CC1)C2 (stereo not given)	> 10

Tested on: not listed separately
Assay: in vitro
Conditions: PAMPA
Description: Effective permeability of the compound after 18 hrs by PAMPA

Compound	Papp at 18 h [×10⁻⁶ cm/s]
COc1cc2c(cc1OC)C(=O)C(CC1CCN(Cc3ncccc3C)CC1)C2 (stereo not given)	8.4
COc1cc2c(cc1OC)C(=O)C(CC1CCN(Cc3cccc(C)n3)CC1)C2 (stereo not given)	9.7
COc1cc2c(cc1OC)C(=O)C(CC1CCN(Cc3ccccc3F)CC1)C2 (stereo not given)	13.7
